From US10335446B2, “Methods of treating diseases using grape proteins” (priority 2015, dated 2019) come the findings set out here.

Each structure is given as a SMILES string.

A short description of the experiment: Diet-induced obesity (DIO) mice study: blood glucose, insulin, plasma lipids, body weight, food intake. It counts as in vivo, C57BL/6J male mice. Conditions: Atorvastatin 20 mg/kg, test articles tid po 10 mL/kg + ad libitum.

On to `CC(C)c1c(C(=O)Nc2ccccc2)c(-c2ccccc2)c(-c2ccc(F)cc2)n1CC[C@@H](O)C[C@@H](O)CC(=O)O` [Atorvastatin], for which the “body weight of the DIO mice” value is “significantly decrease”. Under “DIO mice, 0-8 weeks”, the blood glucose level result was “significantly decrease” and the insulin sensibility result is on record as “significantly increase”.
